Laboratory results reported in patent US20180200339A1, “METHODS OF REDUCING CORNEAL ENDOTHELIAL CELL LOSS” (Massachusetts Eye and Ear Infirmary, priority 2013, published 2018).

Key:
[1] = system: corneal endothelial cells; experiment: VIP treatment of mice after trigeminal axotomy: corneal endothelial cell density (immunofluorescence, ZO-1 staining); assay type: in vivo, BALB/c mice; settings: daily intraperitoneal VIP 5 nM in 10 μL, day 14, versus saline
Description: (§1) Six- to eight-week old male BALB/c mice (Charles River, Wilmington, Mass.) were used in these experiments. Trigeminal axotomy was performed by first anesthetizing the animals with a ketamine (100 mg/mL)/xylazine (20 mg/mL)/acepromazine (15 mg/mL) mixture. After anesthetization, small incision lateral canthotomy was performed, two tractional sutures were placed on the lid skin, and the conjunctival fornix were incised circumferentially around 90 degrees. The eye globe was rotated nasally by gently pushing the nasal fornix with blunt forceps, exposing the trigeminal nerve and minimizing intraoperative bleeding through mild elevation of the intraorbital pressure. The ophthalmic branches of the trigeminal nerve were cut at the posterior sclera close to the optic nerve with sharp forceps. After cutting the branches of the trigeminal nerve, the skin was sutured using 8-0 nylon. Tarsorrhaphy was performed to reduce the risk of infection and exposure keratitis in the mice. Finally, an antibiotic ointment (bacitracin-neomycin-polymyxin mixture) was applied to the sutured area and the treated eye in the mice. Fluxinin (0.25 mg /kg body weight) was administered every 12 hours for 24 hours by subcutaneous injection. […]
Corneal endothelial cells were counted using cell counter plug-ins with ImageJ software (NIH, Bethesda, Md.). […] The results are expressed as mean±SEM, and considered significant if p<0.05.

[2] = system: cornea; experiment: VIP treatment of mice after trigeminal axotomy: corneal thickness by AS-OCT; assay type: in vivo, BALB/c mice; settings: daily intraperitoneal VIP 5 nM in 10 μL, day 14, AS-OCT, versus saline
Description: as §1, with “mice.” for “mice. Fluxinin (0.25 mg /kg body weight) was administered every 12 hours for 24 hours by subcutaneous injection.”
Normal and post-operative cornea were examined using anterior segment optical coherence tomography (AS-OCT, RTVue, Optoview, Inc., Fremont, Calif.) at 7, 14 and 21 days after the surgical procedure. […] The corneal thickness was measured using built-in software. […]

In the case of vasoactive intestinal peptide [VIP], the “corneal endothelial cell density” value [1] is reported as “didn't decrease” and the corneal thickness [2] is reported as “remained within the normal ranged”.
